Structures can show the parent of a compound that is named as a salt.
Target: T1, AR (Homo sapiens, UniProt P10275)
T1 construct: endogenous in cells; host or cells: VCaP cells
T1 sequence (P10275 1-920): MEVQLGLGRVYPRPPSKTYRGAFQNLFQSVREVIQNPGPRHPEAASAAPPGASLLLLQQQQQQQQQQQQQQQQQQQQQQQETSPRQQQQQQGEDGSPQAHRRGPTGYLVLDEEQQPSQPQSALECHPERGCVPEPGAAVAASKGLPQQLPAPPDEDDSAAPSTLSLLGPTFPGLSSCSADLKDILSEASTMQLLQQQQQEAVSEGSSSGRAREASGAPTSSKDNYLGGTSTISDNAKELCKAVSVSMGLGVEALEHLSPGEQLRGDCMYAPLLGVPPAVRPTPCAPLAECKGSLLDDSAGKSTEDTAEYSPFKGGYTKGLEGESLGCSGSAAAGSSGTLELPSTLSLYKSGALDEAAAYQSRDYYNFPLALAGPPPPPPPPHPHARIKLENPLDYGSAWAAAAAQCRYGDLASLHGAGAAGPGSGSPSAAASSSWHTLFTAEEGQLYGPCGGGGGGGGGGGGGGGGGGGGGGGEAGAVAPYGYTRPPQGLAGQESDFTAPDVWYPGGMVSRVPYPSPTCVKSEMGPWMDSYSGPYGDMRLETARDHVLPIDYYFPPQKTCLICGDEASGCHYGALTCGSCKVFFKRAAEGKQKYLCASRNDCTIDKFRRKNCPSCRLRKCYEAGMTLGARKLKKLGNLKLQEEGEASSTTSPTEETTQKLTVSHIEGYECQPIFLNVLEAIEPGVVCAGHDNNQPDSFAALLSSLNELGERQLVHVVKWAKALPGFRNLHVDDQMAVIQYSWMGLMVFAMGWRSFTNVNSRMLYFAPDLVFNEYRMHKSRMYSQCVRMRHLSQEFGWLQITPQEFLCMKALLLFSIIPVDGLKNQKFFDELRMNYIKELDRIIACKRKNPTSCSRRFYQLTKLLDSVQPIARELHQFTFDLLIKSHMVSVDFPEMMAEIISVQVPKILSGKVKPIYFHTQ
Assay: VCAP AR Degradation Assay
Assay type: cell-based
Conditions: for Y (AR degradation efficiency, % of DMSO control): class symbols *; for DC50: class symbols A-C, read-out: DC50
How it was run: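 Compounds were plated as 10-point 1:3 series reaching 5 μM final, then VCaP cells were seeded onto them and incubated 24 h at 37 °C. Cells were lysed cold, and total AR was measured by sandwich ELISA relative to 0.1% DMSO wells.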

Row | SMILES | Y (AR degradation efficiency, % of DMSO control) | DC50
1 | CCc1cc(N2C(=S)N(c3cnc(C#N)c(C(F)(F)F)c3)C(=O)C2(C)C)ccc1O[C@H](C)CN1C[C@@H](C)N(CC(=O)Nc2cccc(NC3CCC(=O)NC3=O)c2)[C@@H](C)C1 (single isomer, unassigned) [Example 239] | * (0<Y<=25%) | < 100 nM
2 | CCc1cc(N2C(=S)N(c3ccc(C#N)c(C(F)(F)F)c3)C(=O)C2(C)C)ccc1OCCN1CCN(CC(=O)Nc2cccc(NC3CCC(=O)NC3=O)c2)C[C@@H]1C (stereo partly shown) [Example 43, hydrochloride] | * (0<Y<=25%) | < 100 nM
3 | CC[C@H]1CN(CCOc2ccc(N3C(=S)N(c4ccc(C#N)c(C(F)(F)F)c4)C(=O)C3(C)C)cc2C2CC2)CCN1CC(=O)Nc1cccc(NC2CCC(=O)NC2=O)c1 (stereo partly drawn) [Example 263, 2-((S)-4-(2-(4-(3-(4-cyano-3-(trifluoromethyl)phenyl)-5,5-dimethyl-4-oxo-2-thioxoimidazolidin-1-yl)-2-cyclopropylphenoxy)ethyl)-2-ethylpiperazin-1-yl)-N-(3-(2,6-dioxopiperidin-3-ylamino)phenyl)acetamide] | * (0<Y<=25%) | < 100 nM
4 | CCc1cc(N2C(=S)N(c3cnc(C#N)c(C(F)(F)F)c3)C(=O)C2(C)C)ccc1OCCN1CCN([C@H](C)C(=O)Nc2cc(Cl)cc(NC3CCC(=O)NC3=O)c2)CC1 (stereo partly drawn) [Example 191, (2R)-N-(3-chloro-5-(2,6-dioxopiperidin-3-ylamino)phenyl)-2-(4-(2-(4-(3-(6-cyano-5-(trifluoromethyl)pyridin-3-yl)-5,5-dimethyl-4-oxo-2-thioxoimidazolidin-1-yl)-2-ethylphenoxy)ethyl)piperazin-1-yl)propanamide] | * (0<Y<=25%) | < 100 nM
5 | CCc1cc(N2C(=S)N(c3ccc(C#N)c(C(F)(F)F)c3)C(=O)C2(C)C)ccc1OCCN1CCN([C@@H](C)C(=O)Nc2cccc(NC3CCC(=O)NC3=O)c2)[C@@H](C)C1 (stereo partly drawn) [Example 275, (2S)-2-((S)-4-(2-(4-(3-(4-cyano-3-(trifluoromethyl)phenyl)-5,5-dimethyl-4-oxo-2-thioxoimidazolidin-1-yl)-2-ethylphenoxy)ethyl)-2-methylpiperazin-1-yl)-N-(3-(2,6-dioxopiperidin-3-ylamino)phenyl)propanamide] | * (0<Y<=25%) | < 100 nM
6 | CCc1cc(N2C(=S)N(c3ccc(C#N)c(C(F)(F)F)c3)C(=O)C2(C)C)c(F)cc1OCCN1C[C@@H](C)N(CC(=O)Nc2cccc(NC3CCC(=O)NC3=O)c2)[C@@H](C)C1 (stereo partly drawn) [Example 247, 2-((2S,6R)-4-(2-(4-(3-(4-cyano-3-(trifluoromethyl)phenyl)-5,5-dimethyl-4-oxo-2-thioxoimidazolidin-1-yl)-2-ethyl-5-fluorophenoxy)ethyl)-2,6-dimethylpiperazin-1-yl)-N-(3-(2,6-dioxopiperidin-3-ylamino)phenyl)acetamide] | * (0<Y<=25%) | < 100 nM
7 | CC(C)c1cc(N2C(=S)N(c3cnc(C#N)c(C(F)(F)F)c3)C(=O)C2(C)C)ccc1OCCN1CCN(CC(=O)Nc2cc(Cl)cc(NC3CCC(=O)NC3=O)c2)CC1 (stereo not shown) [Example 93, N-(3-chloro-5-(2,6-dioxopiperidin-3-ylamino)phenyl)-2-(4-(2-(4-(3-(6-cyano-5-(trifluoromethyl)pyridin-3-yl)-5,5-dimethyl-4-oxo-2-thioxoimidazolidin-1-yl)-2-isopropylphenoxy)ethyl)piperazin-1-yl)acetamide] | * (0<Y<=25%) | < 100 nM
8 | CCc1c(OCCN2C[C@@H](C)N(CC(=O)Nc3cccc(NC4CCC(=O)NC4=O)c3)[C@@H](C)C2)ccc(N2C(=S)N(c3ccc(C#N)c(C(F)(F)F)c3)C(=O)C2(C)C)c1C (stereo partly drawn) [Example 270, 2-((2R,6S)-4-(2-(4-(3-(4-cyano-3-(trifluoromethyl)phenyl)-5,5-dimethyl-4-oxo-2-thioxoimidazolidin-1-yl)-2-ethyl-3-methylphenoxy)ethyl)-2,6-dimethylpiperazin-1-yl)-N-(3-(2,6-dioxopiperidin-3-ylamino)phenyl)acetamide] | ** (25%<Y<=35%) | 100 to 500 nM
9 | C[C@@H]1CN(CC(=O)Nc2cc(C#N)cc(NC3CCC(=O)NC3=O)c2)[C@H](C)CN1CCOc1ccc(N2C(=S)N(c3cnc(C#N)c(C(F)(F)F)c3)C(=O)C2(C)C)cc1C(C)(F)F (stereo partly drawn) [Example 243, N-(3-cyano-5-(2,6-dioxopiperidin-3-ylamino)phenyl)-2-((2R,5R)-4-(2-(4-(3-(6-cyano-5-(trifluoromethyl)pyridin-3-yl)-5,5-dimethyl-4-oxo-2-thioxoimidazolidin-1-yl)-2-(1,1-difluoroethyl)phenoxy)ethyl)-2,5-dimethylpiperazin-1-yl)acetamide] | * (0<Y<=25%) | < 100 nM
10 | N#Cc1ccc(N2C(=O)C3(CCOC3)N(c3ccc(OCCN4CCN(CC(=O)Nc5cc(Cl)cc(NC6CCC(=O)NC6=O)c5)CC4)c(F)c3)C2=S)cc1C(F)(F)F (single isomer, unassigned) [Example 54, N-(3-chloro-5-(2,6-dioxopiperidin-3-ylamino)phenyl)-2-(4-(2-(4-(3-(4-cyano-3-(trifluoromethyl)phenyl)-4-oxo-2-thioxo-7-oxa-1,3-diazaspiro[4.4]nonan-1-yl)-2-fluorophenoxy)ethyl)piperazin-1-yl)acetamide] | * (0<Y<=25%) | < 100 nM
11 | CC(F)(F)c1cc(N2C(=S)N(c3cnc(C#N)c(C(F)(F)F)c3)C(=O)C2(C)C)ccc1OCCN1CCN(CC(=O)Nc2cc(NC3CCC(=O)NC3=O)cc(F)c2F)CC1 (stereo not shown) [Example 82, 2-(4-(2-(4-(3-(6-cyano-5-(trifluoromethyl)pyridin-3-yl)-5,5-dimethyl-4-oxo-2-thioxoimidazolidin-1-yl)-2-(1,1-difluoroethyl)phenoxy)ethyl)piperazin-1-yl)-N-(5-(2,6-dioxopiperidin-3-ylamino)-2,3-difluorophenyl)acetamide] | * (0<Y<=25%) | < 100 nM
12 | CC(C)c1cc(N2C(=S)N(c3ccc(C#N)c(C(F)(F)F)c3)C(=O)C23CCC3)cnc1OCCN1C[C@@H](C)N(CC(=O)Nc2cccc(NC3CCC(=O)NC3=O)c2)[C@@H](C)C1 (stereo partly drawn) [Example 227, 2-((2S,6R)-4-(2-(5-(7-(4-cyano-3-(trifluoromethyl)phenyl)-8-oxo-6-thioxo-5,7-diazaspiro[3.4]octan-5-yl)-3-isopropylpyridin-2-yloxy)ethyl)-2,6-dimethylpiperazin-1-yl)-N-(3-(2,6-dioxopiperidin-3-ylamino)phenyl)acetamide] | * (0<Y<=25%) | < 100 nM
13 | CC(C)Cc1cc(N2C(=S)N(c3ccc(C#N)c(C(F)(F)F)c3)C(=O)C2(C)C)ccc1OCCN1CCN(CC(=O)Nc2cccc(NC3CCC(=O)NC3=O)c2)CC1 (stereo not shown) [Example 18] | * (0<Y<=25%) | < 100 nM
14 | CCCc1cc(N2C(=S)N(c3cnc(C#N)c(C(F)(F)F)c3)C(=O)C2(C)C)ccc1OCCN1CCN(CC(=O)Nc2cccc(NC3CCC(=O)NC3=O)c2)CC1 (stereo not shown) [Example 38, hydrochloride] | * (0<Y<=25%) | < 100 nM
15 | CCc1cc(N2C(=S)N(c3ccc(C#N)c(C(F)(F)F)c3)C(=O)C2(C)C)ccc1OCCN1CCN(CC(=O)Nc2cccc(NC3CCC(=O)NC3=O)c2)[C@H](C)C1 (stereo partly shown) [Example 45] | * (0<Y<=25%) | < 100 nM
16 | CCc1cc(N2C(=S)N(c3ccc(C#N)c(C(F)(F)F)c3)C(=O)C2(C)C)ccc1OCCN1CCN([C@@H](C)C(=O)Nc2cccc(NC3CCC(=O)NC3=O)c2)[C@H](C)C1 (stereo partly drawn) [Example 281, (2S)-2-((R)-4-(2-(4-(3-(4-cyano-3-(trifluoromethyl)phenyl)-5,5-dimethyl-4-oxo-2-thioxoimidazolidin-1-yl)-2-ethylphenoxy)ethyl)-2-methylpiperazin-1-yl)-N-(3-(2,6-dioxopiperidin-3-ylamino)phenyl)propanamide] | * (0<Y<=25%) | < 100 nM
17 | C[C@@H]1CN(CCOc2ccc(N3C(=S)N(c4ccc(C#N)c(C(F)(F)F)c4)C(=O)C3(C)C)cc2C2CC2)C[C@H](C)N1CC(=O)Nc1cccc(N[C@H]2CCC(=O)NC2=O)c1 [Example 289, 2-((2R,6S)-4-(2-(4-(3-(4-cyano-3-(trifluoromethyl)phenyl)-5,5-dimethyl-4-oxo-2-thioxoimidazolidin-1-yl)-2-cyclopropylphenoxy)ethyl)-2,6-dimethylpiperazin-1-yl)-N-(3-((S)-2,6-dioxopiperidin-3-ylamino)phenyl)acetamide] | * (0<Y<=25%) | < 100 nM

Reference: patent US12404241B2 (Celgene Corporation, priority 2018, dated 2025)
